Experiment [1] deals with T1, Helios (Homo sapiens, UniProt Q96SW2+Q9UKS7).
T1 construct: endogenous in cells; host or cells: Jurkat cells
Put plainly: Helios Cellular Degradation Assay (Helios, Jurkat). In kind it is cell-based. The settings on record: Jurkat cells, 72 h incubation, flow cytometry with Helios-PE antibody; read-out: Helios Jurkat IC50. How it is done: (§1) Jurkat cells were plated at 80,000 cells/well in 40 μL RPMI+10% FBS in a 384 well cell culture plate prior to using acoustic dispensing technology for adding compound of interest. Cell cultures were incubated for 72 h at 37° C. and 5% CO2. In order to facilitate analysis, cell cultures were spun down at 200 rpm for 5 min and the supernatant was discarded. […] Subsequently, 30 μL of 1× Permeabilization buffer was added prior to centrifuging the cells and discarding the supernatant. Stained cells were resuspended in 25 μL of flow cytometry staining buffer (PBS+0.2% BSA) and analyzed using an Intellicyt Ique Plus flow cytometer.

Experiment [2] has as its target T2, Ikaros (Homo sapiens, UniProt Q13422+Q96SW2).
T2 construct: endogenous in cells; host or cells: Jurkat cells
Description: Helios Cellular Degradation Assay (Ikaros, Jurkat). The format is cell-based. The settings on record: Jurkat cells, 72 h incubation, flow cytometry with Ikaros-Alexa488 antibody; read-out: Ikaros Jurkat IC50. The method, then: as §1

T1 sequence (Q9UKS7 whole entry): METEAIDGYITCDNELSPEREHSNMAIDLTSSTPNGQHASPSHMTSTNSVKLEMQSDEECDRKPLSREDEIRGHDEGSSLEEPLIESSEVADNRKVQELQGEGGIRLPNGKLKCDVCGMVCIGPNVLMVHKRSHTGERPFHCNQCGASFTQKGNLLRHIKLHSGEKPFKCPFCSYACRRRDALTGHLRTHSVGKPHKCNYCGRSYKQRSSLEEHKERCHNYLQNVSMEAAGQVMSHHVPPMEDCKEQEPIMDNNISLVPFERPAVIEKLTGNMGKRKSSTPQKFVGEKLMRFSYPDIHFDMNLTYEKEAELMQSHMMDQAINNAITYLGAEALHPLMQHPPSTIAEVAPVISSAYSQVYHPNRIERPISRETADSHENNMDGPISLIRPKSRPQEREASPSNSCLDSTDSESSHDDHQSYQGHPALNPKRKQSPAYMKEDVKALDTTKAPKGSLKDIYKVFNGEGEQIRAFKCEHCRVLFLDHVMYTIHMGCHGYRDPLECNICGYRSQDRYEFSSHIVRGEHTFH
T1 sequence (Q96SW2 whole entry): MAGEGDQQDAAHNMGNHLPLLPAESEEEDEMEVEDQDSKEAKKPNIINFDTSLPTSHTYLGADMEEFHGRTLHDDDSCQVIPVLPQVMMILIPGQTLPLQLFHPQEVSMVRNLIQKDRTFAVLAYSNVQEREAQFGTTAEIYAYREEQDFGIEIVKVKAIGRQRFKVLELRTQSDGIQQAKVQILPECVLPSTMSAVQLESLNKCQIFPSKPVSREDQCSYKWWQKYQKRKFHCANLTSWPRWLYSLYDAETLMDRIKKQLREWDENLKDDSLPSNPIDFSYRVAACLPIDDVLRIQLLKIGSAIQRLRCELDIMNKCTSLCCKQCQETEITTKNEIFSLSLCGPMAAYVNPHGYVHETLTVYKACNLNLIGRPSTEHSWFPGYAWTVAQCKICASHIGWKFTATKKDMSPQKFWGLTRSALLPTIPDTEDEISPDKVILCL
T1 sequence (Q16531 whole entry partner): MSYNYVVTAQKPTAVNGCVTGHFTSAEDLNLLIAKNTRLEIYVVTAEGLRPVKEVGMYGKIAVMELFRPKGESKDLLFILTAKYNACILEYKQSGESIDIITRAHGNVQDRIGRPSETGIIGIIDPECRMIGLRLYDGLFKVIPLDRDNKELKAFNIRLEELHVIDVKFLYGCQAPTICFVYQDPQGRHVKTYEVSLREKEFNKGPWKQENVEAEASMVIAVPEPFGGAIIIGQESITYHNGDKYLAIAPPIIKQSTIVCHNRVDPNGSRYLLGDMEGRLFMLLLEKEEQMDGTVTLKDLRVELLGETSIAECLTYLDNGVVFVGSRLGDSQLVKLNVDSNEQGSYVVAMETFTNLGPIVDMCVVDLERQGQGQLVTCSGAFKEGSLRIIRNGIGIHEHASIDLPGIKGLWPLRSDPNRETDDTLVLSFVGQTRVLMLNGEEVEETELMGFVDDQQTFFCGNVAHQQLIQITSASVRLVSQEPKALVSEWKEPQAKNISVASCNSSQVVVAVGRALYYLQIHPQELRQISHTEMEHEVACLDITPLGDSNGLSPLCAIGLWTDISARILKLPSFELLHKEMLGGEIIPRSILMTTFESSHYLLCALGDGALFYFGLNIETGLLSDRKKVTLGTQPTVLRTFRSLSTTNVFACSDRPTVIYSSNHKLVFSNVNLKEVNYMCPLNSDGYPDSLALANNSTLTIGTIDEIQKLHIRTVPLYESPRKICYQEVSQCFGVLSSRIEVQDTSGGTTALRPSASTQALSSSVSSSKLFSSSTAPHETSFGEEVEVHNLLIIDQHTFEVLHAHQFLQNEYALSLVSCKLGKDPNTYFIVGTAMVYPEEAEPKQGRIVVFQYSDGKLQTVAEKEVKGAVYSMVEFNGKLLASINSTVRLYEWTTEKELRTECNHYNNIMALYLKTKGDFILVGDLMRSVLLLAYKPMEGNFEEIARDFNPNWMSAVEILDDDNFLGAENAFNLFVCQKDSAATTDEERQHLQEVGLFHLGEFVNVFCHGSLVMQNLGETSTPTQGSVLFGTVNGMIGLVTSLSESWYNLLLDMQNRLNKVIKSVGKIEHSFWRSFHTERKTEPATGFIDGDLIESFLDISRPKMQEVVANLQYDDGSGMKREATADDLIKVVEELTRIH
T2 sequence (Q13422 whole entry): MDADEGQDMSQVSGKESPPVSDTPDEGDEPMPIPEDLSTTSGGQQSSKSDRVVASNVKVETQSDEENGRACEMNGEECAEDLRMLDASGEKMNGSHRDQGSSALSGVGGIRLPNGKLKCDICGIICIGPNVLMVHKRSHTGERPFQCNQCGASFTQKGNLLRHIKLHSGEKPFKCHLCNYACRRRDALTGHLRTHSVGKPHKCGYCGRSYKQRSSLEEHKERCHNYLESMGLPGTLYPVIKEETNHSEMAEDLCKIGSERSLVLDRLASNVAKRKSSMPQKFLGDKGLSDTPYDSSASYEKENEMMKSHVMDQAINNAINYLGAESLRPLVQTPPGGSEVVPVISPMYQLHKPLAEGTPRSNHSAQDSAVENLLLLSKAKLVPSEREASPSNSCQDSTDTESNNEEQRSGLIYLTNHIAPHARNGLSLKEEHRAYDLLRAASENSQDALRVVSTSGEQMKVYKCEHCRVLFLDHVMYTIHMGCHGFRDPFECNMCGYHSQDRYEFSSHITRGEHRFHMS
T2 sequence (Q96SW2 whole entry): as the sequence (Q96SW2 whole entry) above
T2 sequence (Q16531 whole entry partner): as the sequence (Q16531 whole entry partner) above

As to `Cc1cc(-c2ccc3c(c2F)[C@H](C)N(C2CCC(=O)NC2=O)C3=O)nc(N)c1F` (stereo partly drawn) [Example 30, 3-((S)-5-(6-Amino-5-fluoro-4-methylpyridin-2-yl)-4-fluoro-3-methyl-1-oxoisoindolin-2-yl)piperidine-2,6-dione], the DC50 is 700 nM in experiment [1] and greater than 10000 nM in experiment [2].

As to `Cc1cc(N)nc(-c2ccc3c(c2F)[C@@H](C)N(C2CCC(=O)NC2=O)C3=O)c1` (stereo partly drawn) [Example 24, 3-((R)-5-(6-Amino-4-methylpyridin-2-yl)-4-fluoro-3-methyl-1-oxoisoindolin-2-yl) piperidine-2,6-dione], the DC50 was 160 nM in experiment [1] and greater than 10000 nM in experiment [2].

For `Cc1cc(-c2ccc3c(c2)C(C)N(C2CCC(=O)NC2=O)C3=O)nc(N)c1F` (single isomer, unassigned) [Example 22], the DC50 in experiment [1] was 200 nM; in experiment [2], greater than 10000 nM.

In the case of `CNc1nc(-c2ccc3c(c2)[C@@H](C)N(C2CCC(=O)NC2=O)C3=O)cc(C)c1C#N` (single isomer, unassigned) [Example 15], the DC50 is 57 nM in experiment [1] and greater than 10000 nM in experiment [2].

Take `Cc1cc(N)nc(-c2ccc3c(c2F)CN(C2CCC(=O)NC2=O)C3=O)c1F` (stereo not shown) [Example 20, 3-(5-(6-Amino-3-fluoro-4-methylpyridin-2-yl)-4-fluoro-1-oxoisoindolin-2-yl)piperidine-2,6-dione]: the DC50 in experiment [2] was greater than 10000 nM.

With `Cc1cc(-c2ccc3c(c2F)[C@@H](C)N(C2CCC(=O)NC2=O)C3=O)nc(N)c1F` (stereo partly drawn) [Example 29, 3-((R)-5-(6-amino-5-fluoro-4-methylpyridin-2-yl)-4-fluoro-3-methyl-1-oxoisoindolin-2-yl)piperidine-2,6-dione], the DC50 in experiment [1] was 24 nM; in experiment [2], greater than 10000 nM.

Turning to `Cc1cc(-c2ccc3c(c2)[C@H](C)N(C2CCC(=O)NC2=O)C3=O)nc(N)c1C#N` (single isomer, unassigned) [Example 10], the DC50 in experiment [1] was 310 nM; in experiment [2] it was greater than 10000 nM.

In the case of `C[C@@H]1c2c(ccc(-c3cc(C(F)(F)F)cc(N)n3)c2F)C(=O)N1C1CCC(=O)NC1=O` (stereo partly drawn) [Example 25, 3-((R)-5-(6-Amino-4-(trifluoromethyl)pyridin-2-yl)-4-fluoro-3-methyl-1-oxoisoindolin-2-yl)piperidine-2,6-dione], the DC50 was 1300 nM in experiment [1] and greater than 10000 nM in experiment [2].

As for `CNc1nc(-c2ccc3c(c2)[C@@H](C)N(C2CCC(=O)NC2=O)C3=O)cc(C)c1C` (single isomer, unassigned) [Example 13], the figures for the DC50 in experiment [1] and in experiment [2] were 2800 nM and greater than 10000 nM, respectively.

Take `Cc1cc(-c2ccc3c(c2C)CN(C2CCC(=O)NC2=O)C3=O)nc(N)c1C#N` (stereo not shown) [Example 1, 2-amino-6-(2-(2,6-dioxopiperidin-3-yl)-4-methyl-1-oxoisoindolin-5-yl)-4-methylnicotinonitrile]: the DC50 in experiment [1] is 1400 nM; in experiment [2], greater than 10000 nM.

In the case of `Cc1cc(-c2ccc3c(c2F)[C@@H](C)N(C2CCC(=O)NC2=O)C3=O)nc(N)c1C#N` (stereo partly drawn) [Example 23, 2-Amino-6-((3R)-2-(2,6-dioxopiperidin-3-yl)-4-fluoro-3-methyl-1-oxoisoindolin-5-yl)-4-methylnicotinonitrile], the values for the DC50 in experiment [1] and in experiment [2] were 35 nM and greater than 10000 nM, respectively.

With `Cc1cc(-c2ccc3c(c2)C(C)N(C2CCC(=O)NC2=O)C3=O)nc(N)c1F` (single isomer, unassigned) [Example 21], the DC50 is 5.8 nM in experiment [1] and greater than 10000 nM in experiment [2].

As to `Cc1cc(-c2ccc3c(c2)[C@@H](C)N(C2CCC(=O)NC2=O)C3=O)nc(N)c1C#N` (single isomer, unassigned) [Example 11], the DC50 in experiment [1] is 6 nM; in experiment [2], greater than 10000 nM.

With `CNc1nc(-c2ccc3c(c2)[C@H](C)N(C2CCC(=O)NC2=O)C3=O)cc(C)c1C#N` (single isomer, unassigned) [Example 14], the figures for the DC50 in experiment [1] and in experiment [2] were 1000 nM and greater than 10000 nM, respectively.

As to `Cc1cc(-c2ccc3c(c2F)CN(C2CCC(=O)NC2=O)C3=O)nc(N)c1C` (stereo not shown) [Example 7, 3-(5-(6-Amino-4,5-dimethylpyridin-2-yl)-4-fluoro-1-oxoisoindolin-2-yl)piperidine-2,6-dione], the DC50 in experiment [1] was 1 nM; in experiment [2], greater than 10000 nM.

`CNc1nc(-c2ccc3c(c2)[C@H](C)N(C2CCC(=O)NC2=O)C3=O)cc(C)c1C` (stereo partly drawn) [Example 12, 3-((S)-5-(4,5-Dimethyl-6-(methylamino)pyridin-2-yl)-3-methyl-1-oxoisoindolin-2-yl) piperidine-2,6-dione]: the DC50 in experiment [1] is 33 nM; in experiment [2], greater than 10000 nM.

On to `Cc1cc(-c2ccc3c(c2F)CN(C2CCC(=O)NC2=O)C3=O)nc(N)c1C#N` (stereo not shown) [Example 3, 2-Amino-6-(2-(2,6-dioxopiperidin-3-yl)-4-fluoro-1-oxoisoindolin-5-yl)-4-methylnicotinonitrile], for which the results for the DC50 in experiment [1] and in experiment [2] were 3 nM and greater than 10000 nM, respectively.

On to `Cc1cc(-c2ccc3c(c2F)CN(C2CCC(=O)NC2=O)C3=O)nc(N)c1F` (stereo not shown) [Example 19, 3-(5-(6-Amino-5-fluoro-4-methylpyridin-2-yl)-4-fluoro-1-oxoisoindolin-2-yl)piperidine-2,6-dione], for which the DC50 in experiment [1] was 3.5 nM; in experiment [2] it was greater than 10000 nM.

As for `Cc1cc(-c2ccc3c(c2)[C@@H](C)N(C2CCC(=O)NC2=O)C3=O)nc(N)c1C` (single isomer, unassigned) [Example 9], the values for the DC50 in experiment [1] and in experiment [2] were 3 nM and greater than 10000 nM, respectively.

These data come from patent US11718601B2 (Bristol-Myers Squibb Company, priority 2021, dated 2023).
